The record followed here is patent US20260297060A1, “COMPOUNDS FOR THE DEGRADATION OF MUTANT BRAF” (C4 THERAPEUTICS, INC., priority 2023, published 2026).

For the test, the system named is A375-NRAS^Q61K cells. Put plainly: CTGlo Cell Viability Assay, A375-NRAS^Q61K (A375.11) cells, 96 hours. It is filed as cell-based, human. As to conditions: Homo sapiens, 96 h, A375.11 (A375-NRAS^Q61K) cells; for Emax: lowest % viability achieved. The essentials: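 Viability as CellTiter-Glo ATP luminescence after 96 h compound exposure at 37 °C; A375.11 (BRAF V600E/NRAS Q61K) cells at 250/well, top final concentration 10 μM in half-log steps. Signal was background-corrected and set relative to DMSO controls. A 4-parameter logistic fit gave GI50 (50% crossing) and Emax.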

`CO[C@@H]1CCN(S(=O)(=O)Nc2ccc(F)c(Oc3ccc4ncn(C5CC6(CCN(C7CC8(C7)CN(c7cc9c(cc7F)c(N7CCC(=O)NC7=O)nn9C)C8)CC6)C5)c(=O)c4c3)c2C#N)C1` (stereo partly drawn) [Compound 269, (3R)-N-[2-cyano-3-[3-[7-[2-[3-(2,4-dioxohexahydropyrimidin-1-yl)-5-fluoro-1-methyl-indazol-6-yl]-2-azaspiro[3.3]heptan-6-yl]-7-azaspiro[3.5]nonan-2-yl]-4-oxo-quinazolin-6-yl]oxy-4-fluoro-phenyl]-3-methoxy-pyrrolidine-1-sulfonamide]: the GI50 (in general, the concentration at which growth is held to half of that of the control) was under 1000 nM and the Emax is under 50%.
Compound `COC1CN(S(=O)(=O)Nc2ccc(F)c(Oc3ccc4ncn(C5CC6(CCN(C7CC8(C7)CN(c7cc9c(cc7F)c(N7CCC(=O)NC7=O)nn9C)C8)CC6)C5)c(=O)c4c3)c2C#N)C1` (stereo not shown) [Compound 280, N-[2-cyano-3-[3-[7-[2-[3-(2,4-dioxohexahydropyrimidin-1-yl)-5-fluoro-1-methyl-indazol-6-yl]-2-azaspiro[3.3]heptan-6-yl]-7-azaspiro[3.5]nonan-2-yl]-4-oxo-quinazolin-6-yl]oxy-4-fluoro-phenyl]-3-methoxy-azetidine-1-sulfonamide] registered a 50% growth inhibitory concentration (GI50) of under 1000 nM and an Emax of under 50%.
